Laboratory results as given in ChEMBL document CHEMBL1201862, “PubChem BioAssay data set” (2004).
Active and inactive are the calls of the source.

Tests used:
[1] = cytotoxicity in KRAS-transformed pancreatic duct cells, primary screen, cell-based, fluorescence, HTS (AID 431); assay type: functional; conditions: Homo sapiens;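 note: cell line used: HPDE-C7K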
[2] = cytotoxicity in HPDE-C7 cells, cell-based, fluorescence, HTS (AID 430); assay type: functional; conditions: Homo sapiens
[3] = biological target: T1, Neuropeptide Y receptor type 2 (Homo sapiens, UniProt P49146); assay type: functional, cell-based;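 note: HEK293 cells expressing the receptor and a CNG channel; stimulus was NPY near EC95 followed by isoproterenol to raise cAMP; antagonist potency measured as restoring cAMP signal that NPY suppresses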
T1 sequence (P49146 whole entry): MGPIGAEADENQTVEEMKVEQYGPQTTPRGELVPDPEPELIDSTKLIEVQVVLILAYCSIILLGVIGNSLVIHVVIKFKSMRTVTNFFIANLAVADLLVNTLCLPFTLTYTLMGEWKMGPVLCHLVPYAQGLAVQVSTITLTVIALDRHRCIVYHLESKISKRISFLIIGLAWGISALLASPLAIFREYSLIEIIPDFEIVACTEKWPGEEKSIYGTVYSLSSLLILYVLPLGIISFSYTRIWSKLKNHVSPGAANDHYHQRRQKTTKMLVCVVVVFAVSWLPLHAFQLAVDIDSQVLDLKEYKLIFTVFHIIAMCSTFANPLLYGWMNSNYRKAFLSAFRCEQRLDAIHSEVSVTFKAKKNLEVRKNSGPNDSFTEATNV

[4] = biological target: T2, Neuropeptide Y receptor type 1 (Homo sapiens, UniProt P25929); assay type: functional;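 note: HEK293 cells with a CNG channel challenged with NPY then isoproterenol; potency as antagonist that reverses NPY suppression of cAMP signal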
T2 sequence (P25929 whole entry): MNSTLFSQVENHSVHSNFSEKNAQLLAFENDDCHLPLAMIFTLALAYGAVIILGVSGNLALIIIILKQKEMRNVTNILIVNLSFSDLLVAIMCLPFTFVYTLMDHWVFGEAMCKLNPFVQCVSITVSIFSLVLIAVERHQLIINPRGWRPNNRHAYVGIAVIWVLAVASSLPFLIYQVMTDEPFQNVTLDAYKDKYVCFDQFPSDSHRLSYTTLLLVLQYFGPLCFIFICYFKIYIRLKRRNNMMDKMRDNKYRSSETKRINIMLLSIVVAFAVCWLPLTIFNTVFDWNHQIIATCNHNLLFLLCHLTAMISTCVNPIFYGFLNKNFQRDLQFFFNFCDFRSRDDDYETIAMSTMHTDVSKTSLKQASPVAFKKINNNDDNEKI

[5] = biological target: T3, Aryl hydrocarbon receptor (Homo sapiens, UniProt P35869); test: Luminescence-based cell-based high throughput dose response assay for activators of the Aryl Hydrocarbon Receptor (AHR). [Related pubchem assays: 2796 (Primary screen (AHR activators in singlicate)), 2845 (Confirmation screen (AHR activators in triplicate)), 434939 (Counterscreen (PXR activators in triplicate)), 2804 (Summary (AHR activators))]; assay type: ADME
T3 sequence (P35869 whole entry): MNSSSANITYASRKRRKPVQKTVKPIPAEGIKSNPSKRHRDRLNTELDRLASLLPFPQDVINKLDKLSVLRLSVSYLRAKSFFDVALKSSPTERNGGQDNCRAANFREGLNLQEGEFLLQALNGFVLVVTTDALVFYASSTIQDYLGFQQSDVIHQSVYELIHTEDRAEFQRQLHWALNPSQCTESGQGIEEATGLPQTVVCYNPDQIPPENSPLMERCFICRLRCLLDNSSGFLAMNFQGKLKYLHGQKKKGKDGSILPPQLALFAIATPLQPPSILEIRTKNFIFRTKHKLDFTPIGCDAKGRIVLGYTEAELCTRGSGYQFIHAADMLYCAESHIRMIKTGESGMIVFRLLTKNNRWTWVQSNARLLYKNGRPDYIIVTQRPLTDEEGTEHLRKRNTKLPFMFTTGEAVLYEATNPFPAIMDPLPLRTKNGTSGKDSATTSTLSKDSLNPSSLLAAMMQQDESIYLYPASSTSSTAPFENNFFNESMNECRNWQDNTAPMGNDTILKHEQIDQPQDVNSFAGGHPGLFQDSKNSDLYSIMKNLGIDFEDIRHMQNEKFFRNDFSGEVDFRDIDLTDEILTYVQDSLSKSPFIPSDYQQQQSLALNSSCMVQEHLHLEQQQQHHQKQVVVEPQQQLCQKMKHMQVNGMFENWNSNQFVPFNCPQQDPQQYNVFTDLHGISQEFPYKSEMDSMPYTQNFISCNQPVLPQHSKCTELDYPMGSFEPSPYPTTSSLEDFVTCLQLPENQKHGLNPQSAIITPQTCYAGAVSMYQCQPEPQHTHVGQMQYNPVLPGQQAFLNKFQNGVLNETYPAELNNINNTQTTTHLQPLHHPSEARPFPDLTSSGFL

[6] = M. tuberculosis H37Rv growth inhibitors, H37Rv strain (AID 1626); assay type: functional
[7] = HepG2 cell cytotoxicity, dose response, cytotoxicity control, plate reader, dry powder samples (AID 1159569); assay type: functional, cell-based;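 note: inhibitor potency with signal falling toward the positive control level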
[8] = HepG2 cell cytotoxicity, dose response, cytotoxicity control, cherry-picked samples (AID 1159577); assay type: functional, cell-based
[9] = P. falciparum 3D7-ScDHODH growth inhibitors, dose response, SYBR Green, dry powder samples (AID 1159570); assay type: functional, cell-based;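 note: parasite growth measured after 72 hours of compound exposure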
[10] = P. falciparum Dd2 growth inhibitors, dose response, SYBR Green, cherry-picked samples (AID 1159567); assay type: functional, cell-based
[11] = P. falciparum Dd2 growth inhibitors, dose response, SYBR Green, dry powder samples (AID 1159566); assay type: functional, cell-based;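 note: potency for growth inhibition with lower SYBR green DNA signal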
[12] = P. falciparum ATP4 D1247Y mutant growth inhibitors, dose response, NITD609-resistant line, SYBR Green, dry powder (AID 1159571); assay type: functional, cell-based;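 note: parasites synchronized at ring stage by sorbitol before testing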
[13] = Luminescence Cell-Based Dose Response HTS to Identify Activators of Luciferase Translation or Activity in H4 […] Cells. [Related pubchem assays: 1829 (Project Summary), 1814 (Primary HTS)]; assay type: functional
[14] = Luminescence Cell-Based Dose Confirmation HTS to Identify Activators of 5'UTR Stem-Loop Driven Alpha-Synuclein mRNA Translation in H4 Neuroglioblastoma Cells. [Related pubchem assays: 1829 (Project Summary), 1814 (Primary HTS)]; assay type: functional
[15] = Luminescence Cell-Based Dose Confirmation to Identify Activators of 5'UTR Stem-Loop Driven Alpha-Synuclein mRNA Translation in H4 Neuroglioblastoma Cells. [Related pubchem assays: 1829 (Project Summary), 1814 (Primary HTS)]; assay type: functional
[16] = Luminescence Cell-Based Dose Response to Identify Activators of 5'UTR Stem-Loop Driven Prion Protein mRNA Translation in H4-C Neuroglioblastoma Cells. [Related pubchem assays: 1829 (Project Summary), 1814 (Primary HTS)]; assay type: functional
[17] = Luminescence Cell-Based Dose Response to Identify Activators of Luciferase Translation or Activity in H4-C Neuroglioblastoma Cells. [Related pubchem assays: 1829 (Project Summary), 1814 (Primary HTS)]; assay type: functional
[18] = biological target: T4, Oxysterols receptor LXR-beta (Homo sapiens, UniProt P55055); assay type: functional, cell-based;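 note: Cell-based luminescence dose-response assay of agonist activity at LXR, run as a confirmatory counterscreen to a daf-12 agonist screen; HEK293 cells with Gal4-LXR fusion and GAL4-driven luciferase reporter; agonist potency from rising luciferase signal of a Gal4-LXR reporter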
T4 sequence (P55055 whole entry): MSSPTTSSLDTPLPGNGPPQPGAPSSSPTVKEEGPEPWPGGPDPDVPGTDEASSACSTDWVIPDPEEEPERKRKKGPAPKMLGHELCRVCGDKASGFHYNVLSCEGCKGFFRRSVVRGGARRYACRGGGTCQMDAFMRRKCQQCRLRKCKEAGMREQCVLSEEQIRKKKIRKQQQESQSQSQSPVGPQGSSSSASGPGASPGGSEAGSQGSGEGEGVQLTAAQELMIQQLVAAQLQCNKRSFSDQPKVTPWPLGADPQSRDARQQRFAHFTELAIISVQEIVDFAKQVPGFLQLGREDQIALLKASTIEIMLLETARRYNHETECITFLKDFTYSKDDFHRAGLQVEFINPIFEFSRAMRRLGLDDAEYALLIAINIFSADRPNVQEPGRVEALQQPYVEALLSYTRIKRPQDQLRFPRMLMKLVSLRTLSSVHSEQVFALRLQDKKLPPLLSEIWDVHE

SMILES: Cc1n[nH]c2c1C(c1ccc(-c3ccccc3C#N)o1)C(C#N)=C(N)O2 (centres undefined)
- EC50 [1]: 16.3 µM (active)
- EC50 [2]: 7.78 µM (active)

SMILES: CC(C)COc1ccc(C(=O)OC2CC(C)(C)OCC2CN(C)C)cc1 (centres undefined)
- IC50 [3]: 8.01 µM (active)
- IC50 [4]: 5.55 µM (active)

SMILES: Cc1cc(O)nc(N/N=C/c2ccc(Br)s2)n1
- EC50 [5]: 8.5 µM (active)

SMILES: O=C(Nc1nc(-c2ccc(F)cc2)cs1)c1cnccn1
- IC50 [6]: > 100 µM (active)

SMILES: OC[C@H]1[C@@H](c2ccc(-c3ccc(F)cc3)cc2)[C@@H]2CN(CCC(F)(F)F)CCCCN12
- AC50 [7]: 17 µM (active)
- AC50 [8]: 20.5 µM (active)
- AC50 [9]: 1.21 µM (active)
- AC50 [10]: 0.726 µM (active)
- AC50 [11]: 0.518 µM (active)
- AC50 [12]: 1.1 µM (active)

SMILES: C=CCn1c(N)c(C(=O)NCC2CCCO2)c2nc3ccccc3nc21 (centres undefined)
- EC50 [1]: > 20 µM (not active)
- EC50 [2]: > 20 µM (not active)

SMILES: CC(C)(C)CC(=O)Nc1nnc(-c2cccs2)s1
- EC50 [13]: < 0.1 µM (active)
- EC50 [14]: < 0.1 µM (active)
- EC50 [15]: 0.231 µM (active)
- EC50 [16]: 0.335 µM (active)
- EC50 [17]: 0.408 µM (active)

SMILES: [O-][n+]1onc2c1CCc1nnc(-c3ccccc3)cc1-2
- EC50 [5]: 2.83 µM (active)

SMILES: C/C(=N\c1ccc(C)cc1)c1sc2ccccc2c1O
- EC50 [18]: > 67.5 µM (inactive)
- EC50 (cells): > 67.5 µM (inactive)

SMILES: CCOC(=O)c1sc2nc(-c3ccccc3)ccc2c1N
- EC50 [18]: > 67.5 µM (inactive)
- EC50 (cells): > 67.5 µM (inactive)
